In patent US6783774B1 (priority 1990, dated 2004):
“Also recorded” adds a separate entry of the source.

What was measured:
finger scratch bleeding = assay: finger scratched to bleed, substance applied to bleeding site; type: in vivo, human; conditions: for black blood coagulation / black color formation: derivatives in powder or gel or liquid form; for stopping of bleeding: powder or gel or liquid form
Excerpt: Myself, finger little scratched, slightly bleeds.

[1] = test system: massive bleeding of femoral artery; assay: femoral artery bleeding in rat, powder poured topically; type: in vivo
Description: Sufficient composition comprising powdered D,L-threo-hex-2-enono-1,4-lactone and excipients stops massive bleeding of femoral artery on contact when femoral artery of a rat is cut off In this case of artery on contact when femoral artery of a rat is cut off. In this case of artery bleeding, it is administered topically by pouring instead of spraying. […] Those white spots indicate the powder that is not yet mixed up with the blood. The gel forms first on the surface of the pond of blood, that stops the fluid moving. If stirring the blood to break through the surface film like structure that keeps the blood fluid from moving when the powder is insufficient, it will bleed again, but much slower than before pouring the powder into the bleeding area; adding sufficient powder into the blood, stirring makes the powder molecules well saturated with the hemoglobin and plasma protein molecules and thus forming the concentrated black gel like structure.

[2] = test system: surgical / dental bleeding; assay: clinical evidence: topical powder on surgical and dental bleeding in patients; type: in vivo, human; conditions: person
Description: Person, scalp tumor excision, massive bleeding when the tumor is excised.
Person, acute renal failure, A-V fistula formation operation, masive bleeding. The operation of stopping bleeding consists of combing the powder with pressing with gauzes. […] At the end of the operation, most of black blood coagulation is wiped out with 4×4 gauze, and rinsed with Ringer's solution. It takes totally 5 minutes to stop the bleeding completely, as the surgeon keeps wiping away the coagulation. The patient's conditions are particularly well, better than without using this powder.
Person, skin contracture on the palm, which needs to be removed, and it requires skin graft. When the skin graft is removed from the hand, massive bleeding occurs. On applying sufficient powder to the bleeding area topically, it appears black coagulation on contact. […] Those that appears more black area indicate the more powder mixed up with the blood. Suture going on.
Person, paraanal excision, bleeding when it is opened up. […] Those that appears white are the powder that are not mixed up with the blood. Suture going on.
Person, paranal abscess Excision, massive bleeding when it is opened. […] The white color is the powder instantly not mixed up with the blood yet. Lastly, insert the long gauze into the anus.
Person, chronic hepatitis, has bleeding tendency, extraction of teeth causes massive bleeding.

venous bleeding = assay: vein bleeding in rat, one vein cut off; type: in vivo
gastric bleeding area = assay: bleeding area in rat after histamine-induced gastric acid secretion; type: in vivo; conditions: rat after histamine injection; topical to bleeding area
Excerpt: Thus this powder can treat the gastric ulcer bleeding when ingested orally.

bleeding nostril = assay: nostril bleeding in rat; type: in vivo
capillary bleeding = capillary bleeding in rat, one capillary cut off; type: in vivo
human blood = assay: test tube black blood coagulation of human blood
Excerpt: The present invention is directed to a method for stopping bleeding, comprising administering powdered D,L-threo-hex-2-enono-1,4-lactone tablets thereof to the wound site in an amount of 0.1568 grams for every milliliter of blood. This powder has a very potent coagulation action to stop bleeding when spraying topically on the bleeding area for any normal or diseased patients. When the powder comes in contact with the blood, the black tar like material is formed, and later becomes solid. The amount of the powder that is needed to react completely with the blood is proportional to the amount of the blood that comes out of the blood vessels. […] The artery bleeding needs much more this powder of interest. […] This is the same for normal, colon cancer and hemophilia patients; 1 ml of normal blood needs 0.1568 grams of D,L-threo-hex-2-enono-1,4-lactone powder, 1 ml of colon cancer needs 0.1568 grams of D,L-threo-hex-2-enono-1,4-lactone, 1 ml of hemophilia blood needs 0.1568 grams of D,L-threo-hex-2-enono-1,4-lactone. Sufficient powdered D,L-threo-hex-2-enono-1,4-lactone is particularly useful to stop bleeding in the case of diffuse capillary oozing and mistakenly cut off artery or arteries that can not be found during massive bleeding so as to save the patients's lives therefor. When D,L-threo-hex-2-enono-1,4-lactone is absorbed into the system, it is good for health by making the leucocytes stronger and slowing the aging process etc. However, at the end of operation before closure, the excessive black tar gel like material can be wiped away with Ringer's solution. Normal, liver Disease, Colon Cancer and Hemophilia Blood When tested in the tube, 1 milliliter of human blood requires 0.1568 grams of a composition comprising powdered D,L-threo-hex-2-enono-1,4-lactone to form black blood coagulation by shaking the tube with hand or stirrer machine. It takes 6 minutes to cause the black blood coagulation unmobile in the test tube for normal, liver diseases, colon cancer and hemophilia blood respectively.

**Q.** With `CCCCCCCCCCCCCCCC(=O)OCC(O)C1OC(=O)C(O)=C1O` [D,L-threo-hex-2-enono-1,4-lactone-6-palimitate] as the molecule, how does the “black blood coagulation / black color formation” value (finger scratch bleeding) read?
**A.** Its value is “the black blood coagulation was formed”.

**Q.** And the stopping of bleeding (finger scratch bleeding)?
**A.** Its stopping of bleeding is “bleeding was stopped on contact”.

**Q.** What does the source list for `O=C1OC(C(O)CO)C(O)=C1OC(=O)c1ccccc1` [D,L-threo-hex-2-enono-1,4-lactone-2-benzoate]?
**A.** black blood coagulation / black color formation (finger scratch bleeding): the black blood coagulation was formed; stopping of bleeding (finger scratch bleeding): bleeding was stopped on contact

**Q.** How did the “bleeding after sticky tar like structure is wiped away” value ([1]; after 5-6 minutes) turn out when `O=C1OC(C(O)CO)C(O)=C1O` [D,L-threo-hex-2-enono-1,4-lactone] was run?
**A.** Its value is “no bleeding at all”.

**Q.** And the “formation of black tar like material” value ([1]; as soon as powder contacts the blood)?
**A.** Its value is “formed in one second”.

**Q.** And the “time to stop bleeding” value ([1]; rat femoral artery bleeding, sufficient powder)?
**A.** Its value is “within one second”.

**Q.** And the “amount of powder usually sufficient to stop bleeding” value ([1]; rat femoral artery cut off, poured topically, amount varies with rats)?
**A.** Its value is 0.1344 grams.

**Q.** And the “time to stop the bleeding completely” value ([2]; A-V fistula plasty, acute renal failure, powder plus gauze pressing, coagulation repeatedly wiped away)?
**A.** The value was 5 min.

**Q.** And the stopping of bleeding ([2]; extraction of teeth, chronic hepatitis, bleeding tendency)?
**A.** Its stopping of bleeding is “the bleeding in the socket stops on contact”.

**Q.** What about the stopping of bleeding ([2]; extraction of tooth) of the same molecule?
**A.** The stopping of bleeding was “the bleeding stops on contact”.

**Q.** And the “persistence of stopped bleeding after wiping out black coagulation” value ([2]; extraction of tooth, wiped out in 10 seconds)?
**A.** Its value is “stopped bleeding still persisted”.

**Q.** And the “black blood coagulation formation” value ([2]; paraanal abscess excision, massive bleeding, sprayed)?
**A.** Its value is “the black color is formed on contact”.

**Q.** What about the stopping of bleeding ([2]; paraanal abscess excision, sprayed) of the same molecule?
**A.** Its stopping of bleeding is “it stops bleeding by forming black blood coagulation on contact”.

**Q.** And the stopping of bleeding ([2]; scalp tumor excision, massive bleeding, sprayed)?
**A.** The stopping of bleeding was “the bleeding atops on contact”.

**Q.** And the stopping of bleeding ([2]; skin contracture excision with skin graft, massive bleeding)?
**A.** Its stopping of bleeding is “Bleeding stops at the same time as the black coagulation forms”.

**Q.** And the “bleeding after black coagulation is wiped away” value (venous bleeding; about 1½ minutes after wiping away)?
**A.** The value was “no more bleeding”.

**Q.** And the “amount of powder needed to stop bleeding” value (venous bleeding; rat, one vein cut off)?
**A.** The value was “about 0.0224 grams”.

**Q.** And the stopping of bleeding (venous bleeding; rat, one venous bleeding)?
**A.** Its stopping of bleeding is “stop bleeding on contact; also recorded: within one second”.

**Q.** What about the “black blood coagulation / black color formation” value (finger scratch bleeding) of the same molecule?
**A.** The value was “the black color forms on contact”.

**Q.** What about the black coagulation formation (gastric bleeding area) of the same molecule?
**A.** The black coagulation formation was “the black coagulation formed, but slower than normal”.

**Q.** What about the “amount of powder applied that stops bleeding” value (bleeding nostril; rat nostril cut slightly) of the same molecule?
**A.** Its value is 0.0037 grams.

**Q.** What about the stopping of bleeding (bleeding nostril; rat nostril, 0.0037 grams) of the same molecule?
**A.** The stopping of bleeding was “the bleeding stops on contact”.

**Q.** And the “bleeding after adding the powder” value (capillary bleeding; after 1 minute from adding the powder)?
**A.** Its value is “no more bleeding at all”.

**Q.** And the stopping of bleeding (capillary bleeding; rat, one capillary bleeding)?
**A.** Its stopping of bleeding is “stops the bleeding on contact; also recorded: within one second”.

**Q.** What about the “amount of powder that stops bleeding” value (capillary bleeding; rat, one capillary cut off) of the same molecule?
**A.** Its value is “about 0.0112 grams”.

**Q.** And the “time after which mixture does not move by shaking or pouring” value (human blood; 0.1568 grams per 1 ml normal or diseased human blood)?
**A.** Its value is 6 min.

**Q.** What about the “time to cause black blood coagulation unmobile in the test tube” value (from here on “time … in the test tube”) (human blood; colon cancer blood) of the same molecule?
**A.** Its value is 6 min.

**Q.** What about the “time … in the test tube” value (human blood; hemophilia blood) of the same molecule?
**A.** The value was 6 min.

**Q.** What about the “time … in the test tube” value (human blood; liver diseases blood) of the same molecule?
**A.** The value was 6 min.

**Q.** And the “time … in the test tube” value (human blood; normal blood)?
**A.** Its value is 6 min.

**Q.** And the amount needed (human blood; per 1 ml of colon cancer blood)?
**A.** Its amount needed is 0.1568 grams.

**Q.** And the amount needed (human blood; per 1 ml of hemophilia blood)?
**A.** The amount needed was 0.1568 grams.

**Q.** What about the amount needed (human blood; per 1 ml of normal blood) of the same molecule?
**A.** Its amount needed is 0.1568 grams.

**Q.** What about the “amount required to form black blood coagulation” value (human blood; per 1 ml of normal or diseased human blood, test tube) of the same molecule?
**A.** Its value is 0.1568 grams.

**Q.** What does the source list for “D,L-threo-hex-2-enono-1,4-lactone-2-propane”?
**A.** black blood coagulation / black color formation (finger scratch bleeding): the black blood coagulation was formed; stopping of bleeding (finger scratch bleeding): bleeding was stopped on contact

**Q.** How did the “black blood coagulation / black color formation” value (finger scratch bleeding) turn out when `O=C1OC(C(O)CO)C(O)=C1OP(=O)(O)O` [D,L-threo-hex-enono-1,4-lactone-2-phosphate] was run?
**A.** The value was “the black blood coagulation was formed”.

**Q.** And the stopping of bleeding (finger scratch bleeding)?
**A.** Its stopping of bleeding is “bleeding was stopped on contact”.
